Experimental data as given in the supplement of paper PMC7017272.
± gives the standard deviation of the averaged measurements.

Experiments:
Conditions in all cases: treatment time: 3 days
[1] = test system: UT-SCC-24A; assay: drug sensitivity score (DSS); higher = more sensitive
Description: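 HNSCC cell lines (500 cells/well, 384-well) were cultured on plastic, on top of (2D) or embedded (3D) in Matrigel or human leiomyoma matrix Myogel (500 ug/mL; Myogel 3D mixed with rat collagen I). Cells were treated for 3 days with 5 ten-fold concentrations of each drug, and viability was read by CellTiter-Glo. Suffixes _1/_2/_3 on drug names are replicates.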

[2] = test system: UT-SCC-14; assay: drug sensitivity score (DSS); higher = more sensitive; extreme values may be limits of the assay
Procedure, shortened: (§1)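 Using 384-well plates, 500 cells/well of HPV-negative HNSCC cell lines were grown on plastic, on 500 µg/mL Matrigel or Myogel coatings, or embedded in Matrigel or Myogel with rat collagen I. They were treated with compounds at five 10-fold concentrations for 3 days, and luminescence from CellTiter-Glo 2.0 was normalised to vehicle (0.1% DMSO) and cell-killing control wells. IC50, maximal inhibition and drug sensitivity score were derived from percent-inhibition dose–response curves in the FIMM pipeline.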

[3] = test system: UT-SCC-28; assay: as above
Procedure, shortened: as §1

[4] = test system: UT-SCC-44; assay: as above
Procedure, shortened: as §1

[5] = test system: UT-SCC-24B; assay: as above
Procedure, shortened: as §1

[6] = test system: UT-SCC-8; assay: as above
Procedure, shortened: as §1

[7] = test system: UT-SCC-81; assay: as above
Procedure, shortened: as §1

[8] = test system: UT-SCC-40; assay: as above
Procedure, shortened: as §1

[9] = test system: UT-SCC-42A; assay: as above
Procedure, shortened: as §1

[10] = test system: UT-SCC-106A; assay: as above
Procedure, shortened: as §1

[11] = test system: UT-SCC-73; assay: as above
Procedure, shortened: as §1

[12] = test system: UT-SCC-42B; assay: as above
Procedure, shortened: as §1

[13] = culture condition: embedded in Matrigel
[14] = culture condition: on top of Matrigel
[15] = culture condition: on top of Myogel
[16] = culture condition: plastic 2D (no matrix)
[17] = culture condition: embedded in Myogel + collagen I

COc1cc2ncnc(Nc3ccc(F)c(Cl)c3)c2cc1OCCCN1CCOCC1 [Gefitinib]
drug sensitivity score [1, 13]: 21.1 ± 1.1 DSS
drug sensitivity score [1, 14]: 17 ± 2.1 DSS
drug sensitivity score [1, 15]: 3.27 ± 2.5 DSS
drug sensitivity score [1, 16]: 16.4 ± 3.7 DSS
drug sensitivity score [2, 17]: 1.63 ± 2.7 DSS
drug sensitivity score [2, 14]: 3.87 ± 2.3 DSS
drug sensitivity score [2, 15]: 3.33 ± 3 DSS
drug sensitivity score [2, 16]: 2.6 ± 4.5 DSS
drug sensitivity score [3, 13]: 0.767 ± 1.3 DSS
drug sensitivity score [3, 17]: 0 DSS
drug sensitivity score [3, 14]: 0.433 ± 0.75 DSS
drug sensitivity score [3, 16]: 0 DSS
drug sensitivity score [4, 13]: 0 DSS
drug sensitivity score [4, 17]: 0.567 ± 0.98 DSS
drug sensitivity score [4, 14]: 0.5 ± 0.7 DSS
drug sensitivity score [4, 15]: 1.03 ± 1.5 DSS
drug sensitivity score [4, 16]: 0.167 ± 0.29 DSS
drug sensitivity score [5, 13]: 12.5 ± 1.3 DSS
drug sensitivity score [5, 17]: 10.1 ± 3.4 DSS
drug sensitivity score [5, 14]: 12.4 ± 1 DSS
drug sensitivity score [5, 15]: 5.73 ± 1.2 DSS
drug sensitivity score [5, 16]: 17.5 ± 0.64 DSS
drug sensitivity score [6, 13]: 14 ± 4.7 DSS
drug sensitivity score [6, 17]: 0 DSS
drug sensitivity score [6, 14]: 7.87 ± 2.8 DSS
drug sensitivity score [6, 15]: 2.4 ± 3.8 DSS
drug sensitivity score [6, 16]: 5.97 ± 4.5 DSS
drug sensitivity score [7, 13]: 23.2 ± 0.32 DSS
drug sensitivity score [7, 17]: 1.57 ± 2.7 DSS
drug sensitivity score [7, 14]: 10.8 ± 5.8 DSS
drug sensitivity score [7, 15]: 1 ± 1.1 DSS
drug sensitivity score [7, 16]: 3.83 ± 5.2 DSS
drug sensitivity score [8, 13]: 6.87 ± 1.9 DSS
drug sensitivity score [8, 17]: 2.33 ± 2.6 DSS
drug sensitivity score [8, 14]: 3.7 ± 0.7 DSS
drug sensitivity score [8, 15]: 0.433 ± 0.51 DSS
drug sensitivity score [8, 16]: 0.267 ± 0.25 DSS
drug sensitivity score [9, 17]: 0 DSS
drug sensitivity score [9, 14]: 5 ± 4 DSS
drug sensitivity score [9, 15]: 1.43 ± 1.6 DSS
drug sensitivity score [9, 16]: 2 ± 1.4 DSS
drug sensitivity score [10, 13]: 4.63 ± 3.7 DSS
drug sensitivity score [10, 17]: 0.4 ± 0.69 DSS
drug sensitivity score [10, 14]: 8.13 ± 3.1 DSS
drug sensitivity score [10, 15]: 0.1 ± 0.17 DSS
drug sensitivity score [10, 16]: 7.53 ± 1 DSS
drug sensitivity score [11, 13]: 0.0667 ± 0.12 DSS
drug sensitivity score [11, 17]: 1.73 ± 3 DSS
drug sensitivity score [11, 14]: 1.23 ± 2.1 DSS
drug sensitivity score [11, 15]: 0.133 ± 0.15 DSS
drug sensitivity score [11, 16]: 0.2 ± 0.27 DSS
drug sensitivity score [12, 13]: 12.3 ± 6.1 DSS
drug sensitivity score [12, 14]: 2.67 ± 4.6 DSS
drug sensitivity score [12, 15]: 0 DSS
drug sensitivity score [12, 16]: 1.07 ± 1.7 DSS
